Marks after values point to notes of the source that are not given here.
Columns and labels:
[1] = Parallel artificial membrane permeability assay (PAMPA), BBB model, passive diffusion; assay type: in vitro ADME
Method: The PAMPA assay was used to determine the capacity of compounds to cross a blood brain barrier (BBB) model by passive diffusion, measuring the effective permeability of the compounds at an initial concentration of 200 µM. The buffer solution was prepared from a concentrated commercial solution (Pion, Billerica, MA, US) according to the manufacturer's instructions and the pH was adjusted to 7.4 with 0.5 M NaOH. The compound of interest was dissolved in the buffer solution (200 µM), the PAMPA sandwich was separated and the donor well was filled with 195 µL of the compound of interest. The acceptor plate and donor plate were brought together, with the underside of the membrane in contact with the buffer. An 4 µL aliquot of the phospholipid mixture (20 mg/ml) in dodecane was added to the filter of each well, and then 200 µL of buffer solution was added to each acceptor well. The plate was covered and incubated for 4 h at RT in a saturated humidity atmosphere with agitation and with 25 µm of an unstirred water layer in the Gut-Box (Pion). After 4 h, a 150 µL/well sample from the donor plate and a 150 µL/well sample from the acceptor plate were transferred to HPLC vials. Then, 100 µL from acceptor well, 5 µL from the donor well and 5 µL from the t0 samples were injected into an HPLC reverse-phase symmetry C18 column (150 mm×4.6 mm×5 µm, 100 Å; Waters). Transport was confirmed by HPLC mass spectrometry and matrix-assisted laser desorption/ionization time-of-flight (MALDI-TOF) spectrometry to ensure the compound had maintained its integrity. The phospholipid mixture used was a porcine polar brain lipid extract composed of 12.6% phosphatidylcholine (PC), 33.1% phosphatidylethanolamine (PE), 18.5% phosphatidylserine (PS), 4.1% phosphatidylinositol (PI), 0.8% phosphatidic acid and 30.9% of other compounds.

[2] = test system: C57Bl mice treated with MPTP; assay: MPTP mouse model of Parkinson's disease, stereological counting of TH+ neurons; assay type: in vivo; conditions: MTA 30 mg/kg, MSX-3 10 mg/kg (legend: 9 mg/kg), alone or combined; MPTP 30 mg/kg i.p. 5 days
Method: 12-week-old male C57Bl mice from Charles River (Barcelona, Spain) were injected i.p. with 30 mg/kg 1-methyl-4-phenyl-1,2,3,6-tetrahydropyridine (MPTP, Sigma-Aldrich) on five consecutive days. Subsequently, MTA (30 mg/kg) and/or the A2A adenosine receptor (A2AR, 10 mg/kg) antagonist, MSX-3 (Sigma-Aldrich), was administered one day before starting MPTP treatment and 1 h after each MPTP injection (n = 6 in each experimental group). We used mice in the MPTP model because rats are resistant to systemic MPTP administration and thus, the rat MPTP model requires stereotaxic MPTP injection directly into the nigrostriatal fibers. […]
The reference volume was calculated according to Cavalieri principles from images obtained with a 2× objective using a point count array. The cross-sectional area of the nucleus was measured and the reference volume (Vr) for the entire nucleus was estimated using the following equation: [drawing 1] where T is the thickness of the sections, a/p is the area of each point and Pi is the number of points that landed within the area. The region of interest to estimate the area was outlined at low magnification (4×), and the number of labeled neurons was calculated under 100× magnification (with oil immersion) using randomized meander sampling and the optical dissector methods. […]

5′-deoxy-5′-methylthioadenosine [MTA]
Membrane retention [1]: negligible | effective permeability in PAMPA (in words) [1]: low to intermediate effective permeability | % Membrane retention ([1]; 200 µM, pH 7.4, 4 h at RT): 0% | Pe x 10^−6 (cm/s) ([1]; 200 µM, pH 7.4, 4 h at RT): 0.15 ^* x 10^−6 cm/s | neuroprotection: TH+ neurons in the substantia nigra [2]: not statistically significant

From PMC3944389, “Differential Neuroprotective Effects of 5′-Deoxy-5′-Methylthioadenosine” (PLoS ONE, 2014)
